# Assay results taken from PubChem BioAssay AID179 (DTP/NCI, 2004).
# Activity calls are given as the source filed them.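 How the source made its calls: active means compounds giving half or more protection of infected cells from virus-caused growth loss, again on retest; inactive means the rest.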 Where a SMILES comes first, the peptide text is derived from it. The star is where a group is joined. Cbz = O=C(OCc1ccccc1)*
# System: CEM cells HIV-1 protection, formazan growth assay
# Assay: NCI AIDS Antiviral Assay
# Settings: for IC50: measured here: growth of uninfected CEM cells
# Procedure, shortened: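 CEM (human) cells, HIV-1 infected vs uninfected, 5-point dosing, formazan growth read-out. Retest threshold 50% protection.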
Compound,EC50 [µM],IC50 [µM],outcome
CCOCc1c(C(=O)NCCO)[n+](=O)c2ccccc2n1[O-],> 44.7,> 44.7,–
O=S(=O)(c1ccccc1)C1(CCC2OCCO2)C=CC2(CC1)OCCO2 (configuration not stated),> 200,> 200,–
O=C(Nc1c(Cl)cc([N+](=O)[O-])cc1Cl)C(=O)C(C1OC(=O)c2ccccc21)[N+](=O)[O-] (configuration not stated),> 57.5,> 57.5,–
CN(C)c1cccc2c(S(=O)O)cccc12,> 200,> 200,–
CCOc1nnnc2nc[nH]c12,> 200,70.8,–
Cc1cc(O)c(C=NC(=S)c2ccncc2)c(=O)o1,> 200,> 200,–
S=c1sc2sc(=S)sc2s1,–,–,inactive
O=S(=O)(O)c1ccc2c(c1)NN(c1ccc(/C=C/c3ccc(N=Nc4ccc(/C=C/c5ccc(N6Nc7ccc(S(=O)(=O)O)cc7N6)cc5S(=O)(=O)O)c(S(=O)(=O)O)c4)cc3S(=O)(=O)O)c(S(=O)(=O)O)c1)N2,12.3,123,–
COc1ccc(N2C(=O)C3c4[nH]c5cc(C)ccc5c4C4CCC(C(C)(C)C)CC4C3C2=O)cc1 (configuration not stated),> 200,105,–
COc1cc2ccc1OCc1cccc(n1)COc1ccc(cc1OC)C=NCCNCCN=C2,132,> 200,–
COc1ccc(/C=C/C(=O)O)cc1OC,> 1200,> 1200,–
O=C(Nc1ccccc1)N(CCCCN(Cc1ccccc1)C(=O)Nc1ccccc1)Cc1ccccc1,> 200,112,–
O=C(c1cc(Cl)c(O)c(C(=O)O)c1)c1cc(Cl)c(O)c(C(=O)O)c1,> 61.7,56.2,–
CCOC(=O)CCCN(C(=O)c1ccccc1)c1scc(-c2ccccc2)c1C(=O)OCC,> 200,11.5,–
CC1CC(C)C2=NOS3=C2C1=NO3 (configuration not stated),> 200,> 100,–
CCOC(=O)C12OC(CCC1=O)C(C(=O)OC)=C2C(=O)OC (configuration not stated),> 200,> 200,–
O=C(NN1CCCCCC1)NS(=O)(=O)c1ccc(Cl)cc1,> 200,> 200,–

Compound,EC50 [µM],IC50 [µM],outcome
CN1CN(c2ccccc2)C2(CCN(CC(C)(c3ccc(F)cc3)C3OCCCO3)CC2)C1=O (configuration not stated),> 200,107,–
COc1ccc(N(CN2C(=O)CCC2C(=O)O)C(C)=O)cc1 (configuration not stated),–,–,inactive
CCOC(=O)CC(NC(=O)C(CC(=O)OC)NC(=O)C(CC(=O)OC)NC(=O)C(CC(=O)OC)NC(=O)C(CC(=O)OC)NC(=O)C(CC(=O)OC)NC(=O)C(CC(=O)OC)NC(=O)C(CC(=O)OC)NC(=O)OCc1ccccc1)C(=O)OCC (configuration not stated) (Cbz-D(OMe)D(OMe)D(OMe)D(OMe)D(OMe)D(OMe)D(OMe)D(OEt)-OEt; configuration not given here),> 100,> 100,–
COc1ccc(C2=Nc3c(nc(SC)[nH]c3=O)NC(c3ccccc3)C2)cc1 (configuration not stated),–,–,inactive
CC1(C)CC(=O)C2=C(C1)NC(SCC(=O)O)=C(C#N)C2c1ccc(Br)cc1 (configuration not stated),> 200,178,–
CCn1nc2c3c(ncn3C(C)(C)O2)c1=O,> 200,> 200,–
COC(=O)C(CCC1(C)OCCO1)C(C)=O (configuration not stated),31.6,251,–
CC(O)CC(O)(C(F)(F)F)C(F)(F)F (configuration not stated),> 200,> 200,–
Cc1c(C(=O)c2ccccc2)n(COCCCO[Si](C)(C)C(C)(C)C)c(=O)[nH]c1=O,> 200,11.7,–
Cc1cccc(C(C)C)c1N1C(=O)C(=O)C(c2nc3ccccc3o2)C(=O)C1=O,> 13.5,> 13.5,–
COc1ccc(N2N=NN(C(C)C)/C2=C(/Cl)c2nnnn2-c2ccc(OC)cc2)cc1,> 200,9.33,–
CC(=O)CC(C)(C)S(=O)(=O)O,> 200,> 200,–
O=CC(=C(I)I)c1ccccc1,> 2,1.05,–
CCCc1nn(C)c(CCC(=O)N(Cc2ccccc2)Cc2ccccc2)c1CC,–,–,inactive
O=C(CCSSc1ccccn1)ON1C(=O)CCC1=O,> 50.1,> 50.1,–
O=S(=O)(O)NC1CCCCC1,> 200,> 200,–
